Read-outs that look alike come from different tables or passages of the source. Where a SMILES comes first, the peptide text is derived from it. [ ]: non-standard residue; d: D form. The star is where a group is joined. Stearoyl = CCCCCCCCCCCCCCCCCC(=O)*
Assays:
[1] = system: IVC thrombosis; test: Inferior vena cava (IVC) thrombosis in rats; type: in vivo, rat
Procedure: Specifically, a laparotomy with ligation of the IVC below the renal veins and all visible side branches was first performed. 20 min or 5 hours after the administration of peptide or saline, the thrombosis in the IVC was carefully dissected and weighted after removing blood residual.

[2] = system: rat blood; test: Coagulation time (CT) of rat blood; type: in vivo
Procedure: CT was obtained using the modified Dale’s method. […] Thirty min after administration, blood samples were taken from the rat vein under eye ball with glass capillaries (20 μL), which were broken after 10 s, followed by a coagulation check. The time between blood extraction and blood coagulation in each capillary was recorded as coagulation time (CT).

[3] = Bleeding time test (BT) in rats; type: in vivo, rat; conditions: for increase on the bleeding time compared with the saline group: 30 min; for bleeding time (BT): 30 min after administration
Procedure: Bleeding time was determined as reported previously. Male SD rats (180–220 g) were divided into 6 groups (n = 8). […] Thirty minutes after the injection, bleeding was induced by tail transection of the anesthetized rat with a size 21 disposable scalpel blade 2 mm from the tail tip. The bleeding tail was wiped with filter paper every 30 s, and the bleeding time was recorded when no blood was observed on the filter paper.

[4] = Pharmacokinetics in rats, i.v.; type: in vivo; conditions: rat
Procedure: SD Rats were randomly divided into three groups (n = 5). […] All blood samples were immediately centrifuged at 5000 rpm for 5 min at room temperature, and the plasma obtained was stored at −20 °C before analysis. To the rat plasma (100 μL) was added 10 μL internal standard (80 ~ 100 ng/ml Carbamazepine), followed by mixing with 200 μL methanol with vortexing for 1 min. At this stage, certain amounts of proteins may precipitate out, thus this mixture was centrifuged at 12,000 rpm for 5 min at room temperature to achieve complete separation. The 20 μl supernatant was injected into a HPLC (Symbiosis, Spark, Holland; column: 50 mm × 2.1 mm, 5 μm, Agilent Eclipse Plus) –MS/MS system (ABI 4000 Q-Trap triple quadrupole mass spectrometer) equipped with electrospray ionization (ESI) source in the positive ion mode (Foster City, USA). The HPLC elution gradient was as follows: 0–0.5 min, 5–5% (B); 0.5–3 min, 5–95% (B); 3–4 min, 95–95% (B); 4–4.06 min, 95–5% (B); 4.06–6 min, 5–5% (B); the flow-rate was 0.4 ml/min; A was 0.1% formic acid/Waterl, B was 0.1% formic acid/methanol. The MS parameters were: CUR10Psi; Ion Spray Voltage (IS) 5500v; Collision activated dissociation (CAD) High, Gas1 = 50 psi, Gas2 = 50 psi, TEM = 500 °C.
All three peptides remained stable in plasma during three freeze/thaw cycles, at room temperature for at least 2 h. The supernatant of plasma samples were also found to be stable for at least 24 h at 10 °C in the autosampler.
The statistical significance of the difference among pharmacokinetic parameters was determined using the mean comparison Student’s t-test, and the resulting P values were lower than 0.05, which is considered to be statistically significant.

[5] = target: T1, human serum albumin (HSA) (Homo sapiens, UniProt P02768); test: Intrinsic HSA fluorescence quenching; type: binding; conditions: HSA 5 μM, pH 7.4, 25 °C
T1 construct: purchased Calbiochem (Merck, Germany)
T1 sequence (P02768 25-609): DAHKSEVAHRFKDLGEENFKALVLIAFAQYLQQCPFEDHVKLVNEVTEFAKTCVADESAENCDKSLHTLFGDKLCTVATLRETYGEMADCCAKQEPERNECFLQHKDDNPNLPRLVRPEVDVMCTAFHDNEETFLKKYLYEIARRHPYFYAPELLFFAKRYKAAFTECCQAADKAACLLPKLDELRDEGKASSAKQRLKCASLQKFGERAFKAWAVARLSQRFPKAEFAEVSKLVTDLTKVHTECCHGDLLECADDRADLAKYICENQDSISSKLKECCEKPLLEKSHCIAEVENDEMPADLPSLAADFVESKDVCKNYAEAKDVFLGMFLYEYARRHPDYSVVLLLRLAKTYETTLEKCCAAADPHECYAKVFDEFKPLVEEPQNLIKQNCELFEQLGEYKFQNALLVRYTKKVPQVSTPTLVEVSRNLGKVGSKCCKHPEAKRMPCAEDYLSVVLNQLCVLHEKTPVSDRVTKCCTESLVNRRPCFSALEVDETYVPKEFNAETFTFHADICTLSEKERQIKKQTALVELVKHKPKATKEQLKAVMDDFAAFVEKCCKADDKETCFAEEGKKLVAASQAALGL
Procedure: Fluorescence measurements were conducted on a Hitachi F-4500 spectrofluorometer with a slit width of 5 nm (excitation) and 5 nm (emission). All measurements were performed at 25 °C in a 1 cm path length quartz cell. Samples were excited at 280 nm and the fluorescence intensity was measured between 300–400 nm. Human serum albumin (5 μM) was dissolved in 10 mM HEPES/100 mM NaCl solution (pH 7.4), and then titrated with the stock solution of peptides prepared in the same buffer. The background fluorescence spectra were recorded and subtracted from the ones collected from the peptide-containing samples.

[6] = target: T1, human serum albumin (HSA); test: Surface plasmon resonance on surface-immobilized HSA; type: binding; conditions: HBS-EP buffer, 0.1-10 μM peptide
Procedure: Briefly, HSA was first immobilized on CM5 sensor chips using the standard amine coupling protocol provided by manufacturer. The carboxymethylated dextran surface was then activated by injecting 45 μL of the solution containing 0.2 M N-ethyl-N’-(3-dimethylaminopropyl) carbodiimide hydrochloride and 0.05 M N-hydroxy succinimide. Subsequently, HSA and the control antibody were dissolved in 10 mM Na-citrate solution (pH 5.0, 50 μg/ml) and then injected until the desired amount of HSA and control antibody were coupled (8000 RUs). At this point, a buffer with higher ionic strength (HBS-EP, 0.01 M Hepes, pH = 7.4, 0.15 M NaCl, 3 mM EDTA, 0.005% surfactant) was used to wash off the ligands bound non-covalently. Finally, the 1 M ethanolamine hydrochloride solution (pH 8.5) was employed to cap the free NHS esters present on the sensor surface. […] All samples were injected onto the surface of HSA and control antibody over 3 minutes at a flow rate of 30 μL/min, followed by a dissociation period of 15 min. The 2.5 μM sample was subject to this protocol twice. Sensorgrams were obtained for each peptide concentration, respectively.

[7] = target: T2, trypsin (Bos taurus, UniProt P00760); test: Degradation mediated by trypsin (HPLC); type: in vitro ADME; conditions: trypsin (119 ng/μL) in Tris-HCl buffer, pH 8.5, 119 μg/ml trypsin, peptide 0.79 mM, 37 °C, read-out: peptide intact after incubation with trypsin
T2 construct: purchased Roche Corp (Indianapolis, USA)
T2 sequence (P00760 24-246): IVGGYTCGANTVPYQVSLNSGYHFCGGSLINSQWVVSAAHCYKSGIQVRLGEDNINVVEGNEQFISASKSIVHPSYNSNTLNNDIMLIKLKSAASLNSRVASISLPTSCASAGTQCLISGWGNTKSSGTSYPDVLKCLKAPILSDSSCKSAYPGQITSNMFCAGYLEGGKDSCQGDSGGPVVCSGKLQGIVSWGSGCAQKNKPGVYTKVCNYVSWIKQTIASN
Description: The degradation of peptides mediated by trypsin can be effectively monitored by HPLC analysis. […] The detector wavelength was set at 214 nm.

[8] = SD, plasma, iv, 1 umol/kg, 1 μmol/kg i.v., n = 5

CCCCCCCCCCCCCCCCCC(=O)NCCCC[C@H](NC(=O)CNC(=O)[C@@H]1CCCN1C(=O)[C@H](CCCNC(=N)N)NC(=O)[C@@H]1CCCN1C(=O)[C@H](N)Cc1ccccc1)C(=O)NCC(=O)NCC(=O)N[C@@H](CCC(N)=O)C(=O)NCC(=O)N[C@@H](CC(=O)O)C(=O)N[C@@H](Cc1ccccc1)C(=O)N[C@@H](CCC(=O)O)C(=O)N1CCC[C@H]1C(=O)N[C@H](C(=O)N1CCC[C@H]1C(=O)N[C@@H](CCC(=O)O)C(=O)N[C@@H](CC(=O)O)C(=O)N[C@@H](C)C(=O)N[C@@H](Cc1ccc(O)cc1)C(=O)N[C@@H](CC(=O)O)C(=O)N[C@@H](CCC(=O)O)C(N)=O)[C@@H](C)CC [Peptide S2] (H-[dF]PRPGK(Stearoyl)GGQGDFEPIPEDAYDE-NH2; N-terminus assumed)
Weight of wet thrombosis ([1]; 0.27 mg/kg (0.1 μmol/kg), 300 min after administration): 1.7 ± 0.2 mg
Weight of wet thrombosis ([1]; 0.81 mg/kg (0.3 μmol/kg), 300 min after administration): 0 mg
Weight of wet thrombosis ([1]; 1.61 mg/kg (0.6 μmol/kg), 300 min after administration): 0 mg
Weight of wet thrombosis ([1]; 2.69 mg/kg (1.0 μmol/kg), 20 min after administration): 1.3 ± 1.8 mg
Weight of wet thrombosis ([1]; 2.69 mg/kg (1.0 μmol/kg), 300 min after administration): 0 mg
anticoagulant activity (CT) compared with references ([2]; 1.0 mg/kg peptide S2): superior to the 8 mg/kg hirulog-1 and 200 IU/kg heparin
coagulation time (CT) of rat blood ([2]; 30 min after administration): significantly prolong
increase on the bleeding time compared with the saline group ([3]; 0.5 mg/kg): 29.03%
bleeding time (BT) ([3]; 0.5 mg/kg): 300.00 ± 35.86 s
increase on the bleeding time compared with the saline group ([3]; 1.0 mg/kg): 122.58%
bleeding time (BT) ([3]; 1.0 mg/kg): 517.50 ± 38.45 s
increase on the bleeding time compared with the saline group ([3]; 2.0 mg/kg): 174.19%
bleeding time (BT) ([3]; 2.0 mg/kg): 637.50 ± 74.79 s
AUC(0-inf) [4, 8]: 26.5 µM·h
Cmax [4, 8]: 10.1 ± 1.1 µM
clearance [4, 8]: 0.7 ± 0.1 mL/min/kg
AUC(0-t) ([4]; SD, plasma, iv, 1 umol/kg, 1 μmol/kg i.v., n = 5, read-out: AUC(0-t) (converted)): 22.9 µM·h
Vd ([4]; SD, plasma, iv, 1 umol/kg, 1 μmol/kg i.v., n = 5, read-out: Vss): 0.146 ± 0.0155 L/kg
half-life [4, 8]: 3.54 ± 0.973 h
MRT last ([4]; in vivo, iv, 1 umol/kg, 1 μmol/kg i.v., n = 5, read-out: MRT0-t (converted)): 3.29 h
half-life, fold longer than hirulog-1 [4]: 13.1 fold
half-life, fold longer than peptide 1 [4]: 14.7 fold
AUC(0-t) ([4]; 1 μmol/kg i.v., n = 5): 22.862 ± 3.463 µM·h
AUC(0-∞) ([4]; 1 μmol/kg i.v., n = 5): 1590.6 ± 311.7 nmol·min/mL
binding to HSA by intrinsic fluorescence quenching [5]: dose-dependent fluorescence quenching within the range of 2.5 ~ 16 μM
binding to surface-immobilized HSA (SPR) [6]: weakly bind to HSA
remaining at 3 h, 0.79 mM ([7]; 3 h): 39%
remaining at 5 h, 0.79 mM ([7]; 5 h): 23%

Source: PMC4585835 (Scientific Reports, 2015)
